The results in this text go back to US20230210853A1 (Halia Therapeutics, Inc., priority 2020, published 2023).

Read-outs that look alike come from different tables or passages of the source.

Test [1] has as its target T1, full-length recombinant human NEK7 (Homo sapiens, UniProt Q8TDX7).
T1 construct: full-length recombinant human NEK7; GST (N); purchased SignalChem N09-10G; host or cells: Sf9 insect cells (baculovirus)
The experiment in a line: NEK7 enzymatic assay ([33P]-ATP, casein substrate). It counts as biochemical. The method, boiled down: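 GST-tagged enzyme, baculovirus-expressed in Sf9 cells, was mixed with casein in 20 mM Hepes pH 7.5, 10 mM MgCl2, 1 mM EGTA, 0.02% Brij35, 2 mM DTT, 1% DMSO. Compounds (3-fold series, 10 μM–0.5 nM) were preincubated 20 min at RT, then [33P]-ATP was added for 2 h at RT. P81 filter-bound radioactivity was expressed as % of vehicle activity and fitted to IC50.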

Another test relates to IL-1β release. The experiment in a line: IL-1β release assay (PMA-differentiated THP-1 cells, LPS + nigericin, cleaved IL-1β by JESS). It counts as cell-based. As to conditions: Homo sapiens. The procedure:
(§1) Approximately 1.5 million THP-1 cells were plated in each well of a 6-well TC plate and incubated with 40 nM PMA in RPMI (10% FBS, 1% Penstrep) for 24 hours. The media was then removed and cells were rested in RPMI (10% FBS, 1% Penstrep) for 24 hours after which time the media was removed and cells were pre-treated for 2 hours with various concentrations of compounds of interest (typically serial 3-fold dilution in RPMI +5% FBS, concentrations ranging from 1 μM to 0.5 nM) in RPMI (5% FBS). The media was again removed and cells were incubated with 250 ng/mL LPS and compounds of interest (concentrations as above) in RMPI (5% FBS) for 2 hours. The media was removed for a last time and cells were incubated with 20 μM nigericin and compounds of interest (concentrations as above) in Opti-MEM for 30 minutes. Cell media was then collected and the amount of cleaved IL-1β was determined using a JESS instrument (Protein Simple) and standard protocols. Cleaved 1-PD antibody was obtained from Cell Signaling (catalogue #83186S) and was used at 1:20 dilution in antibody diluent 2. Protein Simple 1× anti-Rabbit HRP secondary antibody was used along with Protein Simple luminol and peroxide for chemiluminescent detection. Primary antibody incubation time was increased from 30 minutes to 60 minutes.
as §1, with “RPMI+5%” for “RPMI +5%”, “Il-1β” for “1-PD”

Setting [2] is: Table 2e, recombinant human NEK7, casein substrate.
[3] abbreviates: Table 2e, THP-1 cells, LPS + nigericin, read-out: IL-1β release IC50.
[4] abbreviates: comparative compounds of Structure (II).
Setting [5] is: THP-1, comparative compounds of Structure (II), read-out: IL-1β release IC50.
The mark [6] stands for this setting: Table 2a, recombinant human NEK7, casein substrate.
Setting [7] is: Table 2a, THP-1 cells, LPS + nigericin, read-out: II-1β release IC50.
[8] abbreviates: Table 2d, recombinant human NEK7, casein substrate.
Setting [9] is: 48 h, Table 2d, THP-1 cells, LPS + nigericin, read-out: IL-1β release IC50.
[10] abbreviates: Table 2b, recombinant human NEK7, casein substrate.
The mark [11] stands for this setting: Table 2b, THP-1 cells, LPS + nigericin, read-out: Il-1β release IC50.

T1 sequence (Q8TDX7 whole entry): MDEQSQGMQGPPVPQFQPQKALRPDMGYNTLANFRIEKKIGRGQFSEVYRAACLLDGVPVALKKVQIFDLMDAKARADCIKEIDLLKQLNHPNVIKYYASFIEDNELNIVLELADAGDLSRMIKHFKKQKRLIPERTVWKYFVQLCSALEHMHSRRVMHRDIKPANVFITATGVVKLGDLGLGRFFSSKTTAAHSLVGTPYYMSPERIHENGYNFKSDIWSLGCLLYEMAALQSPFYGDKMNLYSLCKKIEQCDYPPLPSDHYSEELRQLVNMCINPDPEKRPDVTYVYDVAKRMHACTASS

For the compound `CN1CCC(Oc2ccc(NC(=O)Nc3ccc(Oc4ccnc5[nH]cc(Cl)c45)cc3F)cc2C(F)(F)F)CC1` [Ie-16, 1-(4-((3-chloro-1H-pyrrolo[2,3-b]pyridin-4-yl)oxy)-2-fluorophenyl)-3-(4-((1-methylpiperidin-4-yl)oxy)-3-(trifluoromethyl)phenyl)urea], the figures for the IC50 (in test [1] (setting [2]); with IL-1β release (setting [3])) were 151 to 300 nM and less than 150 nM, respectively.
Turning to `Nc1ncnc2c1c(-c1ccc3c(c1F)CCN3C(=O)Cc1cc(C(F)(F)F)ccc1F)cn2C1CC1` [II-17, 1-(5-(4-amino-7-cyclopropyl-7H-pyrrolo[2,3-d]pyrimidin-5-yl)-4-fluoroindolin-1-yl)-2-(2-fluoro-5-(trifluoromethyl)phenyl)ethan-1-one], the values for the 50% inhibitory concentration (IC50) (in test [1] (setting [4]); in the test on IL-1β release (setting [5])) were less than 150 nM and more than 1000 nM, respectively.
For `CC(C)(C)c1cc(NC(=O)Nc2ccc(-c3nn(C4CC4)c4ncnc(N)c34)cc2F)on1` [Ia-13, 1-(4-(4-amino-1-cyclopropyl-1H-pyrazolo[3,4-d]pyrimidin-3-yl)-2-fluorophenyl)-3-(3-(tert-butyl)isoxazol-5-yl)urea], the IC50 (in test [1] (setting [6]); in the test with IL-1β release (setting [7])) was less than 150 nM each time.
With `Nc1ncnc2c1c(-c1ccc3c(c1F)CCN3C(=O)Cc1cc(C(F)(F)F)ccc1F)nn2C1COC1` [II-12, 1-(5-(4-amino-1-(oxetan-3-yl)-1H-pyrazolo[3,4-d]pyrimidin-3-yl)-4-fluoroindolin-1-yl)-2-(2-fluoro-5-(trifluoromethyl)phenyl)ethan-1-one], the values for the IC50 (in test [1] (setting [4]); in the test on IL-1β release (setting [5])) were less than 150 nM and more than 1000 nM, respectively.
For the compound `CN1CCN(Cc2ccc(NC(=O)Nc3ccc(-c4cn(C5CC5)c5ncnc(N)c45)cc3F)cc2C(F)(F)F)CC1` [Id-33, 1-(4-(4-amino-7-cyclopropyl-7H-pyrrolo[2,3-d]pyrimidin-5-yl)-2-fluorophenyl)-3-(4-((4-methylpiperazin-1-yl)methyl)-3-(trifluoromethyl)phenyl)urea], the IC50 (in test [1] (setting [8]); with IL-1β release (setting [9])) was less than 150 nM in each case.
For `CC(C)(C)c1cc(NC(=O)Nc2ccc(-c3nn(C4COC4)c4ncnc(N)c34)cc2F)on1` [Ia-12, 1-(4-(4-amino-1-(oxetan-3-yl)-1H-pyrazolo[3,4-d]pyrimidin-3-yl)-2-fluorophenyl)-3-(3-(tert-butyl)isoxazol-5-yl)urea], the half-maximal inhibitory concentration (IC50) (in test [1] (setting [6]); in the test on IL-1β release (setting [7])) was less than 150 nM throughout.
For the compound `CN1CCN(Cc2ccc(NC(=O)Nc3ccc(-c4nn(C5CC5)c5ncnc(N)c45)cc3F)cc2F)CC1` [Id-27, 1-(4-(4-amino-1-cyclopropyl-1H-pyrazolo[3,4-d]pyrimidin-3-yl)-2-fluorophenyl)-3-(3-fluoro-4-((4-methylpiperazin-1-yl)methyl)phenyl)urea], the half-inhibitory concentration (IC50) (in test [1] (setting [8]); in the test on IL-1β release (setting [9])) was less than 150 nM throughout.
For the compound `Nc1nccc2c1c(-c1ccc(NC(=O)Nc3cc(C4(C(F)(F)F)CC4)no3)c(F)c1)nn2C1CC1` [Ia-45, 1-(4-(4-amino-1-cyclopropyl-1H-pyrazolo[4,3-c]pyridin-3-yl)-2-fluorophenyl)-3-(3-(1-(trifluoromethyl)cyclopropyl)isoxazol-5-yl)urea], the IC50 (in test [1] (setting [6]); in the test on IL-1β release (setting [7])) was 151 to 300 nM throughout.
Regarding `CC(C)(C)c1cc(NC(=O)Nc2c(F)cc(Oc3ccnc4[nH]cc(Cl)c34)cc2F)n(-c2ccccc2)n1` [Ib-8], the half-inhibitory concentration (IC50) in test [1] (setting [10]) is more than 1500 nM; with IL-1β release (setting [11]), 301 to 500 nM.
For the compound `CN1CCN(Cc2ccc(NC(=O)Nc3ccc(-c4nn(CC(C)(C)O)c5ncnc(N)c45)cc3F)cc2C(F)(F)F)CC1` [Id-28, 1-(4-(4-amino-1-(2-hydroxy-2-methylpropyl)-1H-pyrazolo[3,4-d]pyrimidin-3-yl)-2-fluorophenyl)-3-(4-((4-methylpiperazin-1-yl)methyl)-3-(trifluoromethyl)phenyl)urea], the IC50 (in test [1] (setting [8]); in the test with IL-1β release (setting [9])) was less than 150 nM each time.
As to `CN1CCN(C(=O)c2ccc(NC(=O)Nc3ccc(-c4nn(C5CC5)c5ncnc(N)c45)cc3F)cc2C(F)(F)F)CC1` [Id-48], the 50% inhibitory concentration (IC50) in test [1] (setting [8]) was 151 to 300 nM; with IL-1β release (setting [9]), more than 1000 nM.
`Cc1[nH]c2nccc(Oc3ccc(NC(=O)Nc4ccc(CN5CCN(C)CC5)c(C(F)(F)F)c4)c(F)c3)c2c1Cl` [Ie-27, 1-(4-((3-chloro-2-methyl-1H-pyrrolo[2,3-b]pyridin-4-yl)oxy)-2-fluorophenyl)-3-(4-((4-methylpiperazin-1-yl)methyl)-3-(trifluoromethyl)phenyl)urea]: the IC50 is 301 to 500 nM in test [1] (setting [2]) and less than 150 nM in the test on IL-1β release (setting [3]).
In the case of `CC(C)(C)c1cc(NC(=O)Nc2ccc(Oc3ccnc4[nH]cc(C5CC5)c34)cc2F)n(-c2ccccc2)n1` [Ib-18, 1-(3-(tert-butyl)-1-phenyl-1H-pyrazol-5-yl)-3-(4-((3-cyclopropyl-1H-pyrrolo[2,3-b]pyridin-4-yl)oxy)-2-fluorophenyl)urea], the IC50 in test [1] (setting [10]) is 501 to 1500 nM; in the test with IL-1β release (setting [11]), less than 150 nM.

One may read the IC50 as the concentration that inhibits the measured activity by half.
